Results published in US10251849B2, “Sublingual compositions including epinephrine nanoparticles” (NOVA SOUTHEASTERN UNIVERSITY, priority 2012, dated 2019).
Counter-ions that a name gives are not always drawn. Like-named read-outs stand apart in the source and are kept apart here.

Experiments:
[1] = Experimental: Supernatant solution was withdrawn and filtered through 0.22 μm nylon syringe filters to be analyzed for the quantification of dissolved epinephrine.
Analysis and condition were performed according to USP 26th edition, 2003 “Epinephrine Injection Monograph.”

[2] = remark: listed apart in the source
Experimental: Samples were prepared in triplicates for each concentration, n=3. All prepared samples were processed using LV-1 High Shear Fluid Processor “Microfluidizer” (Microfluidics, Newton, Mass.) equipped with G10Z reaction chamber under various pressures ranging from 15 to 30 KPsi for single or several passes. The microfluidizer-receiving coil was immersed in ice to reduce the heat produced during the process for heat-sensitive drugs. The particle size and potential of the produced nanosuspension were measured. The nanosuspension was centrifuged at 15,000 rpm and 15° C. for 30 minutes to collect the nanoparticles, and the solvent was then removed. The collected nanoparticles were completely dried by speed vacuum concentrator or lyophilization.
(§1) Nanoparticle Characterization: The particle size distribution and zeta potential of the nanosuspension was measured before and after size reduction by volume and by intensity using Mastersizer (Malvern) and Zetasizer Nano-ZS90 (Malvern), respectively. The average of 3 measurements for each sample was reported.

[3] = UV absorptivity of oxidative products of epinephrine at 310 nm; type: physicochemical; settings: controls, not stored, 4 mg/mL
Experimental: The supernatant was visually inspected against white background for any discoloration (USP/NF. Official Monograph: Epinephrine Injection. 31/26 ed. Rockville, Md.: United States Pharmacopeial Convention, Inc.; 2008) and then filtered and diluted to make 4 mg/mL. […] The absorptivity of all samples and controls was calculated by dividing the absorbance by the product of the concentration of the drug (g/L) and the path length (cm) of the cell used to measure the absorbance (USP/NF. Physical Tests: Spectrophotometery and Light-Scattering (851). 31/26 ed. Rockville, Md.: United States Pharmacopeial Convention, Inc.; 2008).
The absorptivity of oxidative products of epinephrine in the tablets from each formulation at each storage condition and in controls was statistically compared by two-way ANOVA and Tukey-Kramer tests.

[4] = various concentrations
Experimental: as §1

CNC[C@H](O)c1ccc(O)c(O)c1 [Epinephrine Base, epinephrine]
Amount Dissolved ([1]; solubility in water): 53.37 µg/mL

CNC[C@H](O)c1ccc(O)c(O)c1 [epinephrine bitartrate, (−)-3,4-dihydroxy-α-[(methylamino)methyl]benzyl alcohol (+)-tartrate (1:1) salt]
Mean ± SD particles size ([2]; 0 passes, before processing, n = 6): 131,800 ± 10500 nm
polydispersity (pdi) ([2]; 0.7 mg/ml, 1 pass at 30 KPsi): (0.257 + 0.060)
polydispersity (pdi) ([2]; 0.7 mg/ml, 2 passes at 30 KPsi): (0.119 ± 0.052)
polydispersity (pdi) ([2]; 0.7 mg/ml, 4 passes at 30 KPsi): (0.217 ± 0.035)
polydispersity (pdi) ([2]; 0.7 mg/ml, 5 passes at 30 KPsi): (0.170 ± 0.070)
polydispersity (pdi) ([2]; 0.7 mg/ml, 6 passes at 30 KPsi): (0.195 ± 0.067)
polydispersity (pdi) ([2]; 1.4 mg/ml, 1 pass at 30 KPsi): (0.239 + 0.044)
polydispersity (pdi) ([2]; 1.4 mg/ml, 2 passes at 30 KPsi): (0.158 ± 0.021)
polydispersity (pdi) ([2]; 1.4 mg/ml, 4 passes at 30 KPsi): (0.178 ± 0.039)
polydispersity (pdi) ([2]; 3.5 mg/ml, 1 pass at 30 KPsi): (0.335 + 0.112)
polydispersity (pdi) ([2]; 3.5 mg/ml, 2 passes at 30 KPsi): (0.576 ± 0.080)
polydispersity (pdi) ([2]; 4.5 mg/ml, 1 pass at 30 KPsi): (0.321 + 0.060)
polydispersity (pdi) ([2]; 4.5 mg/ml, 2 passes at 30 KPsi): (0.315 ± 0.055)
particle size before size reduction ([2]; as stated in summary text): 150.7±5 μm
10th percentile (Dv0.1) ([2]; before processing, n = 6): 39.8 ± 3.0 μm
90th percentile (Dv0.9) ([2]; before processing, n = 6): 254.8 ± 20.1
median (Dv0.5) ([2]; before processing, n = 6): 113.6 ± 9.1 μm
Absorptivity of Oxidative Products of Epinephrine (Mean ± SD) [3]: 0.001 ± 0.000
color of the fabricated nanosuspension [4]: no change in color
Amount Dissolved ([1]; solubility in acetone): 31.28 µg/mL
Amount Dissolved ([1]; solubility in acetonitrile): 15.46 µg/mL
Amount Dissolved ([1]; solubility in chloroform): 1.87 µg/mL
Amount Dissolved ([1]; solubility in ethyl acetate): 12.60 µg/mL
Amount Dissolved ([1]; solubility in hexane): 0.53 µg/mL
Amount Dissolved ([1]; solubility in isopropyl alcohol): 12.30 µg/mL
Amount Dissolved ([1]; solubility in methanol): 209.01 µg/mL
Amount Dissolved ([1]; solubility in tetrahydrofuran (THF)): 155.18 µg/mL
